According to US20050049293A1, “Use of cholinesterase antagonists to treat insulin resistance” (priority 2002, published 2005):
Like-named read-outs stand apart in the source and are kept apart here.

Assays:
[1] = tested on: hepatic muscarinic receptors (insulin resistance); conditions: cats, cited from earlier work
[2] = tested on: atropine-induced HISS-dependent insulin resistance (HDIR); experiment: Rapid insulin sensitivity test (RIST) in atropine model of 75% HDIR, reversal with neostigmine (Example 1); conditions: neostigmine 1 μg/kg/min ipv
[3] = tested on: HISS-dependent insulin resistance in sucrose-fed rats; experiment: RIST during neostigmine infusion in liquid sucrose-fed rats (Example 3); format: in vivo; conditions: portal vein infusion
Description: Since both forms of diet produced the same degree of HDIR, the model of sucrose feeding using the liquid diet was used to determine whether this HDIR was reversible with the anticholinesterase agent, neostigmine.
The model of insulin resistance produced by the 35% liquid sucrose diet (in addition to regular rodent food pellets and normal drinking water) was identical to the protocol described above for the assessment of HDIR in sucrose-fed rats.
The surgical preparation was identical to that described above for sucrose-fed rats tested for HDIR. In addition, a laparotomy and portal vein cannulation were carried out. […] Following a laporotomy, the portal vein was cannulated.
After conducting a control RIST, neostigmine was infused into the portal vein for at least […] before a second RIST was conducted to determine if this agent could reverse the insulin resistance. The doses of neostigmine were 1 and 2 μg/kg/min.

[4] = control RIST index 94.8±11.2 mg/kg

Compound: COc1ccccc1CNCCCCCCNCCCCCCCCNCCCCCCNCc1ccccc1OC [methoctramine]
- Dose achieving a similar degree of insulin resistance ([1]; M2 selective antagonist): 10^−6 μmol/kg

Compound: CN(C)C(=O)Oc1cccc([N+](C)(C)C)c1 [neostigmine]
- RIST index during constant infusion of neostigmine ([2]; after atropine-induced 75% HDIR (blocked state 90.5±[…])): 152.6 ± 15.2 mg/kg
- Reversal of HDIR produced by atropine ([2]; FIG. 1): able to reverse the HDIR
- Reversal of insulin resistance at 1 μg/kg/min ([3]; FIG. 3): did not produce a reversal of insulin resistance
- RIST index during neostigmine 1 μg/kg/min [3, 4]: 80.9 ± 27.3 mg/kg
- RIST index during neostigmine 2 μg/kg/min [3, 4]: 178.0 ± 17.7 mg/kg

Compound: CN1CCN(CC(=O)N2c3ccccc3C(=O)Nc3cccnc32)CC1 [pirenzepine]
- Dose achieving a similar degree of insulin resistance ([1]; M1 muscarinic selective antagonist): 10^−7 mmol/kg
